We go through 10 compounds from US8846951B2 (AbbVie Inc., priority 2009, dated 2014).

SMILES strings stand for the structures. “Also recorded” adds a separate entry of the source. Some results are limits rather than exact numbers.

The test system of data set [1] is AMP- or PCP-induced hyperactivity. Put plainly: Psychostimulant (AMP or PCP)-induced hyperlocomotion in mice. The class given is in vivo, mouse. The settings on record: for spontaneous activity: after ip test compound, before psychostimulant; for AMP-induced hyperactivity: test compound ip 30 min before d-amphetamine 2.0 mg/kg sc. The source says: (x) Assessment of Effects on Psychostimulant-Induced Hyperlocomotion in Mice
In both humans and experimental animals amphetamine (AMP) profoundly affects motor activity, sensorimotor function, sleep, attention, aggressive and sexual behaviors, learning and memory, operant behaviors, appetite and food intake. In addition, amphetamine induces psychotic reactions in normal individuals and exacerbates symptoms of schizophrenia in patients. In experimental animals several distinct behaviors are considered to be correlates of amphetamine psychosis. For example, amphetamine-induced hyperactivity in rodents is believed to model the psychotic symptoms of schizophrenia. Reversal of these behaviors is used to predict potential antipsychotic activity of drugs in pre-clinical studies.
In humans, phencyclidine (PCP) is known to produce a syndrome of behavioral effects which have many characteristics in common with schizophrenia. Therefore, antagonism of PCP effects might be evidence for antipsychotic efficacy of a compound.
Male NMRI mice (5-week old, Janvier, France) or C57BL/6J mice (6-week old, Janvier, France) were group housed and allowed ad-libitum access to food and water. A 12 hour light/dark cycle was imposed with lights-on period between 0530 and 1730 hours. All testing occurred between 700 and 1300 hours. All procedures were approved by Abbott Institutional Animal Care and Use Committee (USA) or Animal Welfare Officer (Germany) and were conducted in accordance with the National Institutes of Health Guide for Care and Use of Laboratory Animals guidelines and applicable national laws in the facilities accredited by the Association for the Assessment and Accreditation of Laboratory Animal Care.
On the day of experiment, animals were brought from the animal facility into the experimental room and were allowed to acclimatize for at least 30 minutes. Animals were then placed in the test cages for a habituation period of 60 minutes. The animals were then injected ip with the test compound and returned to the test cage. 30 Minutes later the mice were injected with d-amphetamine (2.0 mg/kg, AMP, Sigma, #A5880, sc) or phencyclidine (2.0 mg/kg, PCP, Sigma, #P3029, sc) Sigma, and returned to the test cages for 90 minutes. Each treatment group consisted of 8-10 animals. The data was acquired by Cage rack Photobeam system (SDI, San Diego Instruments, CA). The analyzed data were: fine movements, ambulations and total movements (fine+ambulations). Data was subjected to one- or two-way distribution-free ANOVA followed by Dunnett's and Tukey's post hoc tests.

The target of data set [2] is T1, 5HT2C receptors (Homo sapiens, UniProt P28335).
T1 sequence (P28335 33-458): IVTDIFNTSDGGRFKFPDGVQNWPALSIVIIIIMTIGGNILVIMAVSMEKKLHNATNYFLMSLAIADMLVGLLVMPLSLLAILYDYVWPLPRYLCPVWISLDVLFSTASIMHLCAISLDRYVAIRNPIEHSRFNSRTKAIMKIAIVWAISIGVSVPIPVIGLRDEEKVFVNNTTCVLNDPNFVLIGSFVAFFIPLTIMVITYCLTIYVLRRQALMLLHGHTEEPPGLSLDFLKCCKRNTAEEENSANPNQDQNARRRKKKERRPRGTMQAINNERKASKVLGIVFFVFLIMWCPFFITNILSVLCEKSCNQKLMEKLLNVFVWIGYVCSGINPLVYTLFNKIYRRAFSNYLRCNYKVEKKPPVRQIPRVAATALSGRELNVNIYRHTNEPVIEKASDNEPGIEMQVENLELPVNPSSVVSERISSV
Put plainly: Human 5-HT2C functional high throughput screening assay in CHO-K1 cells (calcium flux). The settings on record: for Emax: CHO-K1, 5-HT2C, maximum functional response as percentage relative to the effect of serotonin; for EC50: EC50, 5-HT2C agonist activity, CHO-K1 cells, calcium flux. The arrangement: expressed in transfected cells; host or cells: CHO-K1 cells. The format is cell-based. Put shortly:
(§1)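 Frozen CHO-K1 cells overexpressing the receptor were plated, serum-starved overnight, then loaded with Ca4 dye plus 2.5 mM probenecid for 60 min at room temperature. FLIPR fluorescence (ex 480/em 530 nm, 25 °C) after compound addition was normalized to serotonin; EC50 and Emax came from 4-parameter logistic fits.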
Background: A change in cytosolic calcium serves as a functional read-out for many receptors and channels.

Data set [3] deals with T1, 5HT2C receptors. The data set can be described thus: Human 5-HT2C functional assay in 1321N1 cells (intracellular calcium, FLIPR). The class given is cell-based. More on the design: expressed in transfected cells; host or cells: 1321N1 cells. The note with it: 5-HT2c agonist activity, maximum calcium response. In short, it runs like this: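 Intracellular calcium (Fluo-4, FLIPR peak response) was measured in stably transfected human 5-HT2C 1321N1 cells after overnight serum-free culture. Compounds were applied at final 10^−10 to 10^−5 M either alone or together with 10^−9 M serotonin. Half-maximal effect concentration was derived by four-parameter logistic fitting.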

The target in data set [4] is T2, 5HT2B receptors (Homo sapiens, UniProt P41595).
T2 construct: expressed in transfected cells; host or cells: CHO-K1 cells
T2 sequence (P41595 whole entry): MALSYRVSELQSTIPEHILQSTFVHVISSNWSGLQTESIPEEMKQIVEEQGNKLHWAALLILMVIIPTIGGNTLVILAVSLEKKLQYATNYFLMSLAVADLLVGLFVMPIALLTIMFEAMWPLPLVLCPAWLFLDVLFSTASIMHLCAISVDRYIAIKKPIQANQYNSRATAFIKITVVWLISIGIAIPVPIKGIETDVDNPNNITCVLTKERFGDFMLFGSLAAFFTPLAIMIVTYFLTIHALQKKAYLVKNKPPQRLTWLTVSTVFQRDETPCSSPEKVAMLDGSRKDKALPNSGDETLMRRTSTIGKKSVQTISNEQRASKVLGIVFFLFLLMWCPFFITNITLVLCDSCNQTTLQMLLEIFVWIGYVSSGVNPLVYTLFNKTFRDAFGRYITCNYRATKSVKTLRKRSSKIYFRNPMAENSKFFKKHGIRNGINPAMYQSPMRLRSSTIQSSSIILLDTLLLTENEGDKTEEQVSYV
Put plainly: Human 5-HT2B functional high throughput screening assay in CHO-K1 cells (calcium flux). The note with it: for Emax: CHO-K1; for EC50: EC50, 5-HT2B agonist activity, CHO-K1 cells, calcium flux. The format is cell-based. In short, it runs like this: as §1

The target in data set [5] is T3, human serotonin 5-HT2c receptor (Homo sapiens, UniProt P28335).
T3 construct: expressed in transfected cells; host or cells: CHO cells (membrane homogenates)
T3 sequence (P28335 33-458): T1 sequence (P28335 33-458)
Put plainly: Human 5-HT2C receptor radioligand binding assay (agonist site, [125I]DOI). The settings on record: 5-HT2c agonist site; transfected CHO cell membranes; 0.2 nM [125I](±)DOI. As to the method:
(i) Human 5-HT2C Receptor Radioligand Binding Assay
Affinity of compounds for the agonist site of the […], receptor in transfected CHO cells was determined in a radioligand binding assay essentially as described by Bryant, H. U., et al., Life Sciences (1996) 59(15), 1259-1268.

The target in data set [6] is T4, 5-HT6 receptor (Homo sapiens, UniProt P50406).
T4 construct: expressed in transfected cells; host or cells: CHO cells (membrane homogenates)
T4 sequence (P50406 whole entry): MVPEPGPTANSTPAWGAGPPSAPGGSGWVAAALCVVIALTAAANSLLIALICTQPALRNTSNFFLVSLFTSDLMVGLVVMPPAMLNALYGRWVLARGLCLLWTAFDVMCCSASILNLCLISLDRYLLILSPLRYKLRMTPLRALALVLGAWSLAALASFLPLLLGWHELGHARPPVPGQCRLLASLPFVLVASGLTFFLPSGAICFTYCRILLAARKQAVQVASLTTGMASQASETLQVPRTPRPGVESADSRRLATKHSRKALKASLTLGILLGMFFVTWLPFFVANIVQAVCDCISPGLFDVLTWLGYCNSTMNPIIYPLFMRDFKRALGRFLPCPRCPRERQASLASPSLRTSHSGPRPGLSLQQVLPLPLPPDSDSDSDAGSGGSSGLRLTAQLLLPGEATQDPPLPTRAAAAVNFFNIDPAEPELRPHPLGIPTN
Put plainly: Human 5-HT6 receptor radioligand binding assay (transfected CHO cells, [3H]LSD). The settings on record: transfected CHO cell membranes, 2 nM [3H]LSD. The method, then: (vi) Human 5-HT6 Receptor Radioligand Binding Assay
Affinity of compounds for the agonist site of the 5-HT6 receptor in transfected CHO cells was determined in a radioligand binding assay essentially as described by Monsma, F. J., et al., Mol. Pharmacol. (1993) 43, 320-327. […] Nonspecific binding was determined in the presence of 100 μM serotonin. The amount of binding was determined by radioactivity quantitation with scintillation counter. IC50s were determined from a standard curve of the reference compound serotonin. Ki's as shown in Table 7 were derived from the IC50s in the standard method.

Data set [7] addresses T5, h-5-HT6 receptor (Homo sapiens, UniProt P50406).
T5 construct: expressed in transfected cells; host or cells: HEK293 cells (membranes)
Put plainly: Human 5-HT6 receptor radioligand binding assay (HEK293 membranes, [3H]-LSD). The note with it: HEK293 membranes expressing h-5-HT6 receptor, 1 nM [3H]-LSD; geometrical mean; read-out: Ki (5-HT6 Agonist Site Radioligand Binding).

The target of data set [8] is T1, 5HT2C receptors. Put plainly: Human 5-HT2C functional assay in CHO-K1 cells (96-well, calcium, FLIPR). The format is cell-based. More on the design: expressed in transfected cells. The settings on record: 5-HT2c agonist activity, CHO-K1 cells stably transfected. The method, then:
(iv) Human 5-HT2C Functional Assay in CHO-K1 Cells
Functional activity was determined by testing the effect of the compounds on intracellular calcium levels in CHO-K1 cells stably transfected with the human 5-HT2C receptor. Cells were seeded into 96-well plates at 60,000 cells/well and grown overnight in tissue culture medium (UltraCHO™ (Lonza), containing 1% dFCS, 250 μg/mL Zeocin, 400 μg/mL Geneticin) at 37° C. and 5% CO2. Growth medium was replaced by medium without dFCS for overnight incubation. Cells were loaded with a fluorescent calcium-sensitive dye in the presence of probenicid according to the manufacturer's protocol (FLIPR Ca4 Assay kit, Molecular Devices). Serial compound dilutions (final concentrations 10^−10 to 10^−5 M) were added to the cells and the maximum calcium response was determined using a FLIPR instrument (Molecular Devices). Concentration-response curves were fitted using a four-parameter logistic equation (GraphPad Prism). The concentration at which the compound exerts half its maximal effect is named the ‘effective concentration 50’ or ‘EC50’ and is listed in Table 5.

T5 sequence (P50406 whole entry): as above

For orientation: Emax means the maximal effect, on the per cent scale that the assay sets. What is called EC50 is the concentration at which the effect is half-maximal. Broadly, the Ki is the equilibrium dissociation constant of an inhibitor or competing ligand from its target. As to `O=C1NC[C@H]2CNC[C@@H]2c2ccccc21` [Example 44, (3aR,10bS)-1,2,3,3a,4,5-Hexahydrobenzo[c]pyrrolo[3,4-e]azepin-6(10bH)-one], the spontaneous activity entry in data set [1] was “without affecting spontaneous activity”. For the same compound, the PCP-induced hyperactivity result in data set [1] (test compound ip 30 min before PCP 2.0 mg/kg sc) was “attenuated PCP-induced hyperactivity in mice significantly and in a dose dependent manner; also recorded: attenuating the affect of phencyclidine (PCP)”. The maximum response (Emax) in data set [2] and in data set [4] was 100% each time. Further, the 50% effective concentration (EC50) in data set [2] was 1 nM; in data set [3] it was 3.02 nM; in data set [4], 500 nM. For the same compound, the affinity in data set [5] corresponds to a Ki of 9.5 nM.
As to `CN1C[C@H]2CNC[C@@H]2c2ccc(F)cc2C1=O` [Example 225, (3aR,10bS)-8-Fluoro-5-methyl-1,2,3,3a,4,5-hexahydrobenzo[c]pyrrolo[3,4-e]azepin-6(10bH)-one], in data set [1], the spontaneous activity result was “without affecting spontaneous activity” and the AMP-induced hyperactivity result is listed as “modestly attenuated AMP-induced hyperactivity in mice; also recorded: attenuating the affect of d-amphetamine (AMP)”. For the same compound, in data set [2], the Emax is more than 120% and the concentration for a half-maximal effect (EC50) stood at 20 nM. In data set [4], the Emax turned out to be 110% and the EC50 amounted to 2000 nM.
Turning to `O=S(=O)(c1cccc(Cl)c1)N1Cc2ccccc2[C@@H]2CN(Cc3ccccc3)C[C@H]2C1` (relative stereo) [Example 20, Trans-2-benzyl-5-(3-chlorophenylsulfonyl)-1,2,3,3a,4,5,6,10b-octahydrobenzo[c]pyrrolo[3,4-e]azepine], in data set [3], the EC50 is more than 10000 nM. Moreover, the Ki stood at 43 nM in data set [6] and 260 nM in data set [5].
For `O=S(=O)(c1cccc(F)c1)N1Cc2ccccc2[C@@H]2CN(Cc3ccccc3)C[C@H]2C1` (relative stereo) [Example 8, Trans-2-benzyl-5-(3-fluorophenylsulfonyl)-1,2,3,3a,4,5,6,10b-octahydrobenzo[c]pyrrolo[3,4-e]azepine], the inhibition constant (Ki) in data set [7] was found to be 40.3 nM; in data set [6], 28 nM; in data set [5], 93 nM. The EC50 in data set [8] is more than 1000 nM.
For the compound `O=S(=O)(c1cccc(Br)c1)N1Cc2ccccc2[C@@H]2CN(Cc3ccccc3)C[C@H]2C1` (relative stereo) [Example 12, Trans-2-benzyl-5-(3-bromophenylsulfonyl)-1,2,3,3a,4,5,6,10b-octahydrobenzo[c]pyrrolo[3,4-e]azepine], in data set [3], the EC50 is more than 10000 nM. In addition, the values for the inhibitory constant (Ki) in data set [6] and in data set [5] were 57 nM and 320 nM, respectively.
As for `COc1ccc(CN2C[C@H]3CN(S(=O)(=O)c4cccc(F)c4)Cc4ccccc4[C@@H]3C2)cc1` (relative stereo) [Example 73, Trans-5-(3-fluorophenylsulfonyl)-2-(4-methoxybenzyl)-1,2,3,3a,4,5,6,10b-octahydrobenzo[c]pyrrolo[3,4-e]azepine], in data set [7], the inhibition constant (Ki) amounted to 14.3 nM. Also, the concentration giving a half-maximal response (EC50) in data set [8] was more than 1000 nM.
Turning to `O=C1NC[C@H]2CNC[C@@H]2c2c(F)cc(F)cc21` [Example 106, (3aR,10bS)-8,10-Difluoro-1,2,3,3a,4,5-hexahydrobenzo[c]pyrrolo[3,4-e]azepin-6(10bH)-one], in data set [1], the spontaneous activity result is given as “without affecting spontaneous activity” and the AMP-induced hyperactivity result is given as “modestly attenuated AMP-induced hyperactivity in mice in a dose dependent manner; also recorded: attenuating the affect of d-amphetamine (AMP)”. Besides, in data set [2], the maximal response (Emax) is more than 120% and the EC50 was 0.4 nM. Also, in data set [4], the maximal effect (Emax) amounted to 95% and the EC50 came to 100 nM.
Take `O=C1NCc2ccccc2[C@@H]2CN(S(=O)(=O)c3cccc(Cl)c3Cl)C[C@@H]12` (relative stereo) [Example 39, Trans-2-(2,3-dichlorophenylsulfonyl)-1,2,3,3a,5,6-hexahydrobenzo[c]pyrrolo[3,4-e]azepin-4(10bH)-one]: the values for the Ki in data set [7] and in data set [6] were 207 nM and 275 nM, respectively.
Turning to `O=S(=O)(c1ccc(F)c(Cl)c1)N1Cc2ccccc2[C@@H]2CN(Cc3ccccc3)C[C@H]2C1` (relative stereo) [Example 14, Trans-2-benzyl-5-(3-chloro-4-fluorophenylsulfonyl)-1,2,3,3a,4,5,6,10b-octahydrobenzo[c]pyrrolo[3,4-e]azepine], the EC50 in data set [3] was more than 10000 nM. Besides, the inhibition constant (Ki) came to 250 nM in data set [6] and 590 nM in data set [5].
For `O=S(=O)(c1cccc(C(F)(F)F)c1)N1Cc2ccccc2[C@@H]2CN(Cc3ccccc3)C[C@H]2C1` (relative stereo) [Example 16, Trans-2-benzyl-5-(3-(trifluoromethyl)phenylsulfonyl)-1,2,3,3a,4,5,6,10b-octahydrobenzo[c]pyrrolo[3,4-e]azepine] the same measures were more than 10000 nM, 140 nM and 560 nM.
